Experiment [1] deals with T1, soybean 15-LOX (Glycine max, UniProt P08170).
T1 construct: purchased
T1 sequence (P08170 1-839): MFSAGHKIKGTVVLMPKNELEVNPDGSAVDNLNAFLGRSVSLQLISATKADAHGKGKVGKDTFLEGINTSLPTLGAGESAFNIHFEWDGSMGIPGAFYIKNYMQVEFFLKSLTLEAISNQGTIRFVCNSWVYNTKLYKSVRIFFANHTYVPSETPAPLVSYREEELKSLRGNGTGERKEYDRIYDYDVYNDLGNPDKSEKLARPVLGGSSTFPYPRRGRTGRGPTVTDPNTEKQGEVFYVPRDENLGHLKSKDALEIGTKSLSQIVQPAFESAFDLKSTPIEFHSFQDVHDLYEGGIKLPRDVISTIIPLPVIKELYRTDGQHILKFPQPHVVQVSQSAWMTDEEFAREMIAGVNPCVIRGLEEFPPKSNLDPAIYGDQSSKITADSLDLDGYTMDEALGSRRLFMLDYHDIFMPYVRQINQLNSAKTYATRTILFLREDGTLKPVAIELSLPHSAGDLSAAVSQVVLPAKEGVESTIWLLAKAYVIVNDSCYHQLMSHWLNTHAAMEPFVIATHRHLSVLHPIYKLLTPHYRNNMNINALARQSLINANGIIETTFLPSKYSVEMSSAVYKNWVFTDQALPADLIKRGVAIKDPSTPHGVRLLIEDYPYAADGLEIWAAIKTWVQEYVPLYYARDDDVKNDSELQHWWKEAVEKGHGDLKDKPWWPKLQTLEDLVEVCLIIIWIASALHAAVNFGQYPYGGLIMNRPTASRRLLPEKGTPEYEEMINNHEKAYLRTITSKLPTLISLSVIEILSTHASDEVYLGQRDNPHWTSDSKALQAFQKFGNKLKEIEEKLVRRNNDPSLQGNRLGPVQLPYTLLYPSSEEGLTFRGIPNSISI
Nature of the experiment: In vitro soybean 15-lipoxygenase inhibition assay (spectrophotometric, linoleic acid substrate). Format: biochemical. To be noted: for inhibition at 100 µg/mL: read-out: % Inhibition (100 μg/mL). As to the method: The target compounds (3a, 3c, 3e–g), intermediates (2a, 2c–g) and the starting material (1) were preliminary evaluated in vitro for their ability to inhibit soybean 15-LOX activity by using spectrophotometric method. Bioactivity screening for soybean 15-LOX inhibition by the target compounds was carried out at 100 μg/mL concentration. […] The bioactivities of the compounds were also compared to tHGA as the parent compound.
In vitro soybean 15-LOX inhibiting activity was measured using spectrophotometric method. In brief, sodium phosphate buffer (160 μL, 100 mM, pH 8.0), test sample (10 μL) and soybean 15-LOX (1.13.11.12) type I-B solution (20 μL, 320 U/well) were mixed and incubated for 15 min at 25 °C. The reaction was then initiated by the addition of the substrate in the form of linoleic acid (10 μL, 0.6 mM) solution. The enzymatic conversion of linoleic acid to form (9Z,11E)-(13S))-13-hydroperoxyoctadeca-9,11-dienoate end product was followed by the change of absorbance measured at 234 nm over a period for 6 min. Test samples and reference standards were dissolved in DMSO. Stock solutions were prepared at concentration 100 μg/mL for pure compounds. […] All reactions were performed in triplicate in a 96-well microtitre plate. The IC50 was calculated from the non-linear regression fitting curve of GraphPad Prism 5. The percentage of inhibition (%) can be calculated from the following formula [17]: [drawing 1] (1)

The subject of experiment [2] is airway hyperresponsiveness to methacholine challenge. More on the design: method as in PMID 21958738, PMID 22266348. The settings on record: compared with Zileuton; cited from earlier work.
Experiment [3] concerns activated macrophage cells. More on the design: method as in PMID 16644538. The settings on record: cited from earlier work.
Experiment [4] has as its target T1, soybean 15-LOX. On the set-up: method as in PMID 16644538. To be noted: initial finding; read-out: IC50 against soybean 15-LOX (earlier studies); cited from earlier work.
The next experiment concerns 5-LOX. To be noted: cited from earlier work.
[5] abbreviates: soybean 15-LOX, read-out: IC50 Value (μM) Mean ± SEM.
The mark [6] stands for this setting: rounded values printed in Figure 1, read-out: 15-LOX IC50 (Figure 1).
[7] abbreviates: isolated from Hypericum empetrifolium, read-out: IC50 against 5-LOX.

Read-outs that look alike come from different tables or passages of the source.

As a reminder, the IC50 is the concentration at which inhibition is half-maximal. Take `CCCCC(=O)c1c(O)cc(O)c(C/C=C(\C)CCC=C(C)C)c1O` [3e, (E)-1-(3-(3,7-Dimethylocta-2,6-dienyl)-2,4,6-trihydroxyphenyl)pentan-1-one]: on soybean 15-LOX [1] (100 μg/mL, mean ± SEM), the inhibition at 100 µg/mL came to 90.3 ± 4.4%. Moreover, the IC50 on soybean 15-LOX [1] (setting [5]) came to 10.3 ± 1.5 µM.
Take `CCCCC(=O)c1c(O)cc(O)cc1O` [2e, 1-(2,4,6-Trihydroxyphenyl)pentan-1-one]: on soybean 15-LOX [1], the IC50 was above 100 µM and the inhibition at 100 µg/mL turned out to be 24.5 ± 3.2%.
For `CCC(=O)c1c(O)cc(O)cc1O` [2c, 1-(2,4,6-Trihydroxyphenyl)propan-1-one], the “% Inhibition (100 μg/mL)” value at soybean 15-LOX [1] (100 μg/mL, mean ± SEM) is “did not exhibit any anti-inflammatory activity”. In addition, on soybean 15-LOX [1] (setting [5]), the half-maximal inhibitory concentration (IC50) is above 100 µM.
Turning to `CC(=O)c1c(O)cc(O)c(C/C=C(\C)CCC=C(C)C)c1O` [tHGA, 2,4,6-trihydroxy-3-geranylacetophenone], in experiment [2], the “efficacy in acute murine asthma model (airway hyperresponsiveness, cellular infiltration, cytokines, cysLT, IgE)” value was “as effective as Zileuton”. For the same compound, the “inhibition of cysteinyl leukotriene secretion” value in experiment [3] is on record as “dose-dependent inhibition”. In addition, the IC50 at soybean 15-LOX [4] is 20 µM; in the experiment on 5-LOX (Figure 1, read-out: 5-LOX IC50), 0.42 µM; on soybean 15-LOX [1] (setting [6]), 23 µM; at soybean 15-LOX [1] (setting [5]) it was 23.6 ± 1.7 µM. The inhibition at 100 µg/mL at soybean 15-LOX [1] (100 μg/mL, mean ± SEM) is 94.3 ± 3.4%.
`CC(C)=CCC/C(C)=C/Cc1c(O)cc(O)c(C(=O)C2CCCCC2)c1O` [3f, (E)-Cyclohexyl (3-(3,7-dimethylocta-2,6-dienyl)-2,4,6-trihydroxyphenyl)-methanone]: the inhibition at 100 µg/mL at soybean 15-LOX [1] (100 μg/mL, mean ± SEM) is 88.8 ± 5.9%. Besides, the IC50 at soybean 15-LOX [1] (setting [5]) worked out at 26.3 ± 1.3 µM.
For `CC(C)C(=O)c1c(O)cc(O)cc1O` [2a, 2-Methyl-1-(2,4,6-trihydroxyphenyl)propan-1-one], in that order: 19.4 ± 5% and above 100 µM.
Turning to “3-geranyl-1-(2'-methylbutanoyl)phloroglucinol [compound 4]”, in the experiment with 5-LOX (setting [7]), the IC50 is 5.8 µM.
`CC(C)(C)C(=O)c1c(O)cc(O)cc1O` [2d, 2,2-Dimethyl-1-(2,4,6-trihydroxyphenyl)propane-1-one]: the inhibition at 100 µg/mL at soybean 15-LOX [1] (100 μg/mL, mean ± SEM) amounted to 16.9 ± 1.9%. The IC50 on soybean 15-LOX [1] (setting [5]) was above 100 µM.
For `Oc1cc(O)cc(O)c1` [compound 1, phloroglucinol], in that order: 23.2 ± 2.2% and above 100 µM.
With `O=C(/C=C/c1ccccc1)c1c(O)cc(O)cc1O` [2g, (E)-3-Phenyl-1-(2,4,6-trihydroxyphenyl)prop-2-en-1-one], at soybean 15-LOX [1] (100 μg/mL, mean ± SEM), the “% Inhibition (100 μg/mL)” value is “did not exhibit any anti-inflammatory activity”. Moreover, the IC50 at soybean 15-LOX [1] (setting [5]) was above 100 µM.
As to `CC(C)=CCC/C(C)=C/Cc1c(O)cc(O)c(C(=O)/C=C/c2ccccc2)c1O` [3g, (E)-1-(3-((E)-3,7-Dimethylocta-2,6-dienyl)-2,4,6-trihydroxyphenyl)-3-phenylprop-2-en-1-one], the inhibition at 100 µg/mL on soybean 15-LOX [1] (100 μg/mL, mean ± SEM) came out at 90.8 ± 7.6%. In addition, on soybean 15-LOX [1] (setting [5]), the IC50 stood at 15.2 ± 1.2 µM.
In the case of `CC(C)=CCC/C(C)=C/Cc1c(O)cc(O)c(C(=O)C(C)C)c1O` [3a, 3-Geranyl-1-(2'-methylpropanoyl)phloroglucinol], the IC50 in the experiment with 5-LOX (setting [7]) was 2.2 µM; on soybean 15-LOX [1] (setting [6]) it was 27 µM; on soybean 15-LOX [1] (setting [5]), 27.6 ± 3.6 µM. On soybean 15-LOX [1] (100 μg/mL, mean ± SEM), the inhibition at 100 µg/mL was found to be 90.3 ± 4.1%.
Regarding `CCC(=O)c1c(O)cc(O)c(C/C=C(\C)CCC=C(C)C)c1O` [3c, (E)-1-(3-(3,7-Dimethylocta-2,6-dienyl)-2,4,6-trihydroxyphenyl)propan-1-one], at soybean 15-LOX [1] (100 μg/mL, mean ± SEM), the inhibition at 100 µg/mL stood at 94.4 ± 3%. Besides, the IC50 on soybean 15-LOX [1] (setting [5]) is 12.3 ± 0.6 µM.
For `O=C(c1c(O)cc(O)cc1O)C1CCCCC1` [2f, Cyclohexyl(2,4,6-trihydroxyphenyl)methanone], in that order: 17.5 ± 3% and above 100 µM.

(Values after paper PMC6271415, “Synthesis and Docking Studies of 2,4,6-Trihydroxy-3-Geranylacetophenone Analogs as Potential Lipoxygenase Inhibitor” (Molecules, 2014).)
